# Assay results reported in ChEMBL document CHEMBL3991601, “The target landscape of clinical kinase drugs” (Science, 2017).
# Calls of active or inactive are those of the source. Cut-off read from the data, not from the text of the source, for most assays here: actives have a measured Kd and inactives only a lower limit.
# Experiments:
# [1] = biological target: Atypical kinase COQ8A, mitochondrial (Homo sapiens, UniProt Q8NI60)
# [2] = biological target: Adenylate kinase 2, mitochondrial (Homo sapiens, UniProt P54819)
# [3] = biological target: Calcium/calmodulin-dependent protein kinase type II subunit gamma (Homo sapiens, UniProt Q13555)
# Calcium/calmodulin-dependent protein kinase type II subunit gamma, sequence (Q13555 whole entry): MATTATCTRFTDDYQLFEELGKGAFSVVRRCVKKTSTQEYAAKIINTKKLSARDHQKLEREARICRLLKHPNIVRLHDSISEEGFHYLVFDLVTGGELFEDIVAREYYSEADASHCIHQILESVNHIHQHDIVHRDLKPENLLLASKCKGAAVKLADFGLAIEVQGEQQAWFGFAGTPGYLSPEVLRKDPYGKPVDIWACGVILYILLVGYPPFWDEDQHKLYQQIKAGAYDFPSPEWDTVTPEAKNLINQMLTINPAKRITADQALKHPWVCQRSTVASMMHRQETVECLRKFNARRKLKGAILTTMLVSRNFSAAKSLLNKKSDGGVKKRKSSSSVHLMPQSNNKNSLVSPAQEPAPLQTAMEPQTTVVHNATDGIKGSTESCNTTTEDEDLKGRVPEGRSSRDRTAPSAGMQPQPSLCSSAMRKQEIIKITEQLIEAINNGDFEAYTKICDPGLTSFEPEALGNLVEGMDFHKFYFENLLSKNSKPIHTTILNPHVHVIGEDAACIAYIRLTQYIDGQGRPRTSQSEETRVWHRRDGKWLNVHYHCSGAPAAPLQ
# [4] = biological target: Cyclin-dependent kinase 5 (Homo sapiens, UniProt Q00535)
# Cyclin-dependent kinase 5, sequence (Q00535 whole entry, the tested form may be a part): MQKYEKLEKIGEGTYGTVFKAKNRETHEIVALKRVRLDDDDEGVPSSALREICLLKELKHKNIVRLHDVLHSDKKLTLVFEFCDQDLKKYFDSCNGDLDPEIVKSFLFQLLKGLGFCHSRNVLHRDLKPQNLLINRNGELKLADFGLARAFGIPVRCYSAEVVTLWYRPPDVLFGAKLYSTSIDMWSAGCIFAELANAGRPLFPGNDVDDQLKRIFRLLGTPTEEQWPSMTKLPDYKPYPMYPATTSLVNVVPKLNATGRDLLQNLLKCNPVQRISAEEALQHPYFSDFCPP
# [5] = biological target: Epithelial discoidin domain-containing receptor 1 (Homo sapiens, UniProt Q08345)
# Epithelial discoidin domain-containing receptor 1, sequence (Q08345 whole entry, the tested form may be a part): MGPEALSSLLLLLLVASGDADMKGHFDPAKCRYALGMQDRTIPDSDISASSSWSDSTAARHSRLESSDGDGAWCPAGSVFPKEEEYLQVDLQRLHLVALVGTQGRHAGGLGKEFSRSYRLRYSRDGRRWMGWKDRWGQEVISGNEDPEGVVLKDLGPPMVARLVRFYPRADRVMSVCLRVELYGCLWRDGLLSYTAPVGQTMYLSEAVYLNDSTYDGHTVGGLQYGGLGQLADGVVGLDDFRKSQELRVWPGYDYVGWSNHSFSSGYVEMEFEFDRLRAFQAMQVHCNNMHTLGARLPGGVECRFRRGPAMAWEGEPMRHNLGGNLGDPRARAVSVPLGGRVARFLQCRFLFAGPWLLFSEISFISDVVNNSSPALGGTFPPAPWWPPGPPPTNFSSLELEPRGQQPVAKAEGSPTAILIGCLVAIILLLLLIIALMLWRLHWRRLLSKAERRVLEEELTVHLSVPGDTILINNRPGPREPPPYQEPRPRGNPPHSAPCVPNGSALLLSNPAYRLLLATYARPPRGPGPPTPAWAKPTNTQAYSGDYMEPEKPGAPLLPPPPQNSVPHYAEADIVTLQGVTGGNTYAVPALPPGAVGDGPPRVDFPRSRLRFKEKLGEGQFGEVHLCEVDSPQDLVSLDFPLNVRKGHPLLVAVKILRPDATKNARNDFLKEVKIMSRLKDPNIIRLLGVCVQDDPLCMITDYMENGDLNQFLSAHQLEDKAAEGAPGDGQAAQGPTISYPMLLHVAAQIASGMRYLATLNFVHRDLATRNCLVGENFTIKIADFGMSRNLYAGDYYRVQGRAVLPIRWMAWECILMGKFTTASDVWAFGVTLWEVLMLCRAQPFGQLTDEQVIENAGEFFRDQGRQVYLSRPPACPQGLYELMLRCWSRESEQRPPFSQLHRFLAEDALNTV
# [6] = biological target: T1, Delta(24)-sterol reductase (Homo sapiens, UniProt Q15392)
# T1 sequence (Q15392 whole entry): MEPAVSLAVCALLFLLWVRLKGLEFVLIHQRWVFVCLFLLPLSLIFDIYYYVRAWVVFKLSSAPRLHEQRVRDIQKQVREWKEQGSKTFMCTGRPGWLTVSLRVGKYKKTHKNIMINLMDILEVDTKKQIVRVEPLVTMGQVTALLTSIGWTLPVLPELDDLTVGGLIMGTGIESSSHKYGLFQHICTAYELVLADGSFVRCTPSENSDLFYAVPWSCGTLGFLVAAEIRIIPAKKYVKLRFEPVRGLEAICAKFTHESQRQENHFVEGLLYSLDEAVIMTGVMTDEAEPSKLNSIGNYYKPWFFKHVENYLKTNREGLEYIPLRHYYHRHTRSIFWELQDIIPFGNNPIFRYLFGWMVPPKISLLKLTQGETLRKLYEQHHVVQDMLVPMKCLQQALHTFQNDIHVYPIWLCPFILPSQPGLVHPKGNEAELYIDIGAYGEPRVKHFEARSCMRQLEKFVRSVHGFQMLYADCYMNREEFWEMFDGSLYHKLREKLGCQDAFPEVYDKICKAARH
# [7] = biological target: Tyrosine-protein kinase FRK (Homo sapiens, UniProt P42685)
# Tyrosine-protein kinase FRK, sequence (P42685 whole entry): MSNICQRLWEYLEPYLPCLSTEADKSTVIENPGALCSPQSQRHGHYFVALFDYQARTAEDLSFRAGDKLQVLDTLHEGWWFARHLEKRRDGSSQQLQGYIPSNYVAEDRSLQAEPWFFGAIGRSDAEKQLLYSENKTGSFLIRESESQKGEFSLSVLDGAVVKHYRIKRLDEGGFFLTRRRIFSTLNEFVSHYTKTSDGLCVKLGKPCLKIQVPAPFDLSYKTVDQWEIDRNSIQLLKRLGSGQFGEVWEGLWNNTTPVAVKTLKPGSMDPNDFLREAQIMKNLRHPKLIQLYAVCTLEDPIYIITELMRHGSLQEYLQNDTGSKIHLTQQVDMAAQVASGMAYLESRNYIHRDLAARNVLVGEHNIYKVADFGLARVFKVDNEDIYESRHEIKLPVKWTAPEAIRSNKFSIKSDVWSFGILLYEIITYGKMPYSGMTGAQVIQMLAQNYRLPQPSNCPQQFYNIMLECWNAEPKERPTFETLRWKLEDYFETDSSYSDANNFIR
# [8] = biological target: T2, Mitogen-activated protein kinase kinase kinase kinase 3 (Homo sapiens, UniProt Q8IVH8)
# T2 sequence (Q8IVH8 whole entry): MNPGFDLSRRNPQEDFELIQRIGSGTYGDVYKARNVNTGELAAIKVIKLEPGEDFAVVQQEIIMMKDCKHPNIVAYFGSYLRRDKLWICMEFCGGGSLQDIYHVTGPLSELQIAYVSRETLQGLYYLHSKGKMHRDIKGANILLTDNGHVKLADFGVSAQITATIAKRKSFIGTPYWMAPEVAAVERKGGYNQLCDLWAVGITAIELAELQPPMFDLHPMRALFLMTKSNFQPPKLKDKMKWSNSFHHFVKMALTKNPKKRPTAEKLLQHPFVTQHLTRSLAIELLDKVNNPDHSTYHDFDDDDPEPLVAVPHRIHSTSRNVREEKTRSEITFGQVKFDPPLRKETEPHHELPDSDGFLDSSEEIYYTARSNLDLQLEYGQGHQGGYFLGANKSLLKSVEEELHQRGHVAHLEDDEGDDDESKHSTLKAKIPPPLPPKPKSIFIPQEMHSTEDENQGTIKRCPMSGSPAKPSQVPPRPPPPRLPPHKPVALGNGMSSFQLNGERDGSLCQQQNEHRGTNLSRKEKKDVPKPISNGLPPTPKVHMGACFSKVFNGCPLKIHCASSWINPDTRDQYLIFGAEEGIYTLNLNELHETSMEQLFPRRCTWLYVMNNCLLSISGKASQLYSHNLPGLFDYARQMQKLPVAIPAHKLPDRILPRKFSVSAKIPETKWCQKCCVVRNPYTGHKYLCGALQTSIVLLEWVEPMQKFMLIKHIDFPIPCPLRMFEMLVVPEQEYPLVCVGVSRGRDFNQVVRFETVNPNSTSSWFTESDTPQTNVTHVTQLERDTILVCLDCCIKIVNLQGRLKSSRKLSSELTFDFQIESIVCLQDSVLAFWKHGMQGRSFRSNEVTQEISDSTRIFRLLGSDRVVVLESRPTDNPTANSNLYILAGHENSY
# [9] = biological target: Mitogen-activated protein kinase kinase kinase kinase 5 (Homo sapiens, UniProt Q9Y4K4)
# Mitogen-activated protein kinase kinase kinase kinase 5, sequence (Q9Y4K4 whole entry): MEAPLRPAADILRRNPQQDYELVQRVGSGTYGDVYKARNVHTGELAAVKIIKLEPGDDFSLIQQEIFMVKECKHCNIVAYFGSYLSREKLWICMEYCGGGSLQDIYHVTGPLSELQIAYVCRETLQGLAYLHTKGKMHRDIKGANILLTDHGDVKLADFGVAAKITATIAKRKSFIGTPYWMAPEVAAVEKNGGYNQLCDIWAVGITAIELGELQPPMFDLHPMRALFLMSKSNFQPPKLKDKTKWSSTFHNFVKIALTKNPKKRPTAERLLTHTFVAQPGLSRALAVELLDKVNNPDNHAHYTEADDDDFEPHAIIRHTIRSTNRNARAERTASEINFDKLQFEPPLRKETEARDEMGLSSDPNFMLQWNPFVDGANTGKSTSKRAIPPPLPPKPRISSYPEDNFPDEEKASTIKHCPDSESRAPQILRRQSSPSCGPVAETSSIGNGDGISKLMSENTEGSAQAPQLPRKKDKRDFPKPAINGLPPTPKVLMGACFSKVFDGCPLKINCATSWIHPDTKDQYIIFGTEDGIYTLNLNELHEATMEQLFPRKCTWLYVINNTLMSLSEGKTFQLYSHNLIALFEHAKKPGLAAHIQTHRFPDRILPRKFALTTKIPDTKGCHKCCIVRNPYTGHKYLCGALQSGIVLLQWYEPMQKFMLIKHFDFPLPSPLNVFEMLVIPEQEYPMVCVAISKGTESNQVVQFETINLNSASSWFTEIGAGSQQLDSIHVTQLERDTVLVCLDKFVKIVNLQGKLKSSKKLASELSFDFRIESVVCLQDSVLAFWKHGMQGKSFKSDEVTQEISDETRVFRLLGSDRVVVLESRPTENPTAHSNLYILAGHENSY
# [10] = biological target: Mitogen-activated protein kinase 10 (Homo sapiens, UniProt P53779)
# [11] = biological target: MAP kinase-activated protein kinase 2 (Homo sapiens, UniProt P49137)
# MAP kinase-activated protein kinase 2, sequence (P49137 whole entry): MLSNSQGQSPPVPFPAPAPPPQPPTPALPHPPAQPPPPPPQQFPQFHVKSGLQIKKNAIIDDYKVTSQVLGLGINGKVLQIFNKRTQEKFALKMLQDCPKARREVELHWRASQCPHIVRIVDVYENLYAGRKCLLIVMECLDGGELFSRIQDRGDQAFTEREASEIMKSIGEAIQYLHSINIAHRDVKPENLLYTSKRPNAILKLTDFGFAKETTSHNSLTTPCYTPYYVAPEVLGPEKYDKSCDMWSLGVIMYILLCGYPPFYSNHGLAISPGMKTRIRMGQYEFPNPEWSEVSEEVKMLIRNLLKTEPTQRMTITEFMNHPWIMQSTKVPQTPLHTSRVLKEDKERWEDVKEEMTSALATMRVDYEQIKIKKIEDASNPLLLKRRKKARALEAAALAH
# [12] = biological target: T3, Bifunctional phosphoribosylaminoimidazole carboxylase/phosphoribosylaminoimidazole succinocarboxamide synthetase (Homo sapiens, UniProt P22234)
# T3 sequence (P22234 whole entry): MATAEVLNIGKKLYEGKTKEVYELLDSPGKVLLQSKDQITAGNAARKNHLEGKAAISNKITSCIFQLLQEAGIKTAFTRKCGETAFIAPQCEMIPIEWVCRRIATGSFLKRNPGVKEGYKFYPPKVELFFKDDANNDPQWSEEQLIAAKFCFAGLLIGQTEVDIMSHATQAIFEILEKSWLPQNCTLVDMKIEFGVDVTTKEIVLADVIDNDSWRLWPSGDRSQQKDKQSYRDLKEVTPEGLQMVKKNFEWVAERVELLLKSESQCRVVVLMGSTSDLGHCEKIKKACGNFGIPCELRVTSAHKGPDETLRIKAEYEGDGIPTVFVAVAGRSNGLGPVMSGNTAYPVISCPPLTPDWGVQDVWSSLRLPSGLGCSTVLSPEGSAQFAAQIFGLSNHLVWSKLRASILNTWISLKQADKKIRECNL
# [13] = biological target: Serine/threonine-protein kinase pim-1 (Homo sapiens, UniProt P11309)
# Serine/threonine-protein kinase pim-1, sequence (P11309 whole entry): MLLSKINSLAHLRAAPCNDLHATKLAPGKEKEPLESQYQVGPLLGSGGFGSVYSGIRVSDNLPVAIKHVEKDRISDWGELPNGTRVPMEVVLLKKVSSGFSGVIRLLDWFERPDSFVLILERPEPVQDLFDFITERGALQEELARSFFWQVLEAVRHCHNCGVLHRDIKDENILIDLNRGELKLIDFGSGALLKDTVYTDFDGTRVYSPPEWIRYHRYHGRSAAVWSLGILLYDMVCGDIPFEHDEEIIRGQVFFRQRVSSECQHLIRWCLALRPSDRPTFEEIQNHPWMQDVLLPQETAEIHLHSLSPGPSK
# [14] = biological target: Structural maintenance of chromosomes protein 2 (Homo sapiens, UniProt O95347)
# Structural maintenance of chromosomes protein 2, sequence (O95347 whole entry): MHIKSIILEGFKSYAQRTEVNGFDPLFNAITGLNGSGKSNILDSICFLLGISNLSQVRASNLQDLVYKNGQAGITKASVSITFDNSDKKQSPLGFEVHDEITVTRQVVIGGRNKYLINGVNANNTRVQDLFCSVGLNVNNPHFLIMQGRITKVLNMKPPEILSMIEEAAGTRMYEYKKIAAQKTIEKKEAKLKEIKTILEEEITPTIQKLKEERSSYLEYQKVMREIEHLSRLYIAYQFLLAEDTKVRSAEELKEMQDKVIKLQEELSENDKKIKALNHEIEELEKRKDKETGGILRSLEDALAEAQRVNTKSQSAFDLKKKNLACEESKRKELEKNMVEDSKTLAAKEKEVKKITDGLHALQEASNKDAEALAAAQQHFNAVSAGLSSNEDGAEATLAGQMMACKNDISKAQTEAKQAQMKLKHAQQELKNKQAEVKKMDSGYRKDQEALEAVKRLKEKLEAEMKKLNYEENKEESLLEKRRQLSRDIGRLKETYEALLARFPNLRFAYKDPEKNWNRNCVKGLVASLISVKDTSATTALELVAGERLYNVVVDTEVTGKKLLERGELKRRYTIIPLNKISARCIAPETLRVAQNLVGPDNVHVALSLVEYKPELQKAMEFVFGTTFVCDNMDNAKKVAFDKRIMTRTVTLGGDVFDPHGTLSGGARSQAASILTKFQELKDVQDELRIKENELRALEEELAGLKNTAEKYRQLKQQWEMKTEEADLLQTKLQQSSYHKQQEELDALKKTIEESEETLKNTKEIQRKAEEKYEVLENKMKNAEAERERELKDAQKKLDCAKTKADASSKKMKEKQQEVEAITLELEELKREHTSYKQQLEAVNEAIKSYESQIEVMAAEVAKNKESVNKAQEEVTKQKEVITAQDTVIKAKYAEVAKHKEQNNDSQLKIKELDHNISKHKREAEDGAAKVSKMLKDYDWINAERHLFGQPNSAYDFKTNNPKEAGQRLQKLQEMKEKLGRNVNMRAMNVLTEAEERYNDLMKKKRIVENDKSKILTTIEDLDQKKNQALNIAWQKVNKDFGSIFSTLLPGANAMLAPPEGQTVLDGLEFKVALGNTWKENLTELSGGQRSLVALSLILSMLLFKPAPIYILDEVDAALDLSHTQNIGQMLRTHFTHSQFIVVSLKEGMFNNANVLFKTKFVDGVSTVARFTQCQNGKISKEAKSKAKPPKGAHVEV
# [15] = biological target: T4, Uncharacterized protein FLJ45252 (Homo sapiens, UniProt Q6ZSR9); conditions: read-out: Kd apparent; k-562, colo 205, sk-n-be(2) and mv-4-11
# T4 sequence (Q6ZSR9 whole entry): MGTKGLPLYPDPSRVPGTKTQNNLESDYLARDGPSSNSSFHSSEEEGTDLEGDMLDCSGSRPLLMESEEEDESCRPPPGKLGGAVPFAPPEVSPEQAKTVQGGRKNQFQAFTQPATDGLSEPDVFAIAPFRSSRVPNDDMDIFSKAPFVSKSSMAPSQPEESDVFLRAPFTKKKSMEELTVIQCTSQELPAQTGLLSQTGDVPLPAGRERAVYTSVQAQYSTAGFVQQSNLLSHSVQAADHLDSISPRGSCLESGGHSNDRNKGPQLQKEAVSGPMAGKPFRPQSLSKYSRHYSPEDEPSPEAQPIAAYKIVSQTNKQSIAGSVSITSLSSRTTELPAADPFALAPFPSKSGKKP
# Note: in the data inactive means no Kd found up to 30 µM.
SMILES,Kd [1],Kd [2],Kd [3],Kd [4],Kd [5],Kd [6],Kd [7],Kd [8],Kd [9],Kd [10],Kd [11],Kd [12],Kd [13],Kd [14],Kd [15]
O=c1sn(-c2cccc3ccccc23)c(=O)n1Cc1ccccc1 [TIDEGLUSIB],> 30 µM (inactive),> 30 µM (inactive),> 30 µM (inactive),> 30 µM (inactive),> 30 µM (inactive),> 30 µM (inactive),> 30 µM (inactive),> 30 µM (inactive),> 30 µM (inactive),> 30 µM (inactive),> 30 µM (inactive),> 30 µM (inactive),> 30 µM (inactive),> 30 µM (inactive),> 30 µM (inactive)
Cn1cc(-c2ccc3nnc(C(F)(F)c4ccc5ncccc5c4)n3n2)cn1 [JNJ-38877605],> 30 µM (inactive),> 30 µM (inactive),> 30 µM (inactive),> 30 µM (inactive),> 30 µM (inactive),> 30 µM (inactive),> 30 µM (inactive),> 30 µM (inactive),> 30 µM (inactive),> 30 µM (inactive),> 30 µM (inactive),> 30 µM (inactive),> 30 µM (inactive),> 30 µM (inactive),> 30 µM (inactive)
Cn1ncc(Cl)c1-c1cc(C(=O)N[C@H](CN)Cc2cccc(F)c2)sc1Cl [AFURESERTIB],> 30 µM (inactive),> 30 µM (inactive),> 30 µM (inactive),> 30 µM (inactive),> 30 µM (inactive),> 30 µM (inactive),> 30 µM (inactive),> 30 µM (inactive),> 30 µM (inactive),> 30 µM (inactive),> 30 µM (inactive),> 30 µM (inactive),> 30 µM (inactive),> 30 µM (inactive),> 30 µM (inactive)
CNS(=O)(=O)Nc1nccc(Cc2c(C)c3ccc(Oc4ncccn4)cc3oc2=O)c1F [AVUTOMETINIB],> 30 µM (inactive),> 30 µM (inactive),> 30 µM (inactive),> 30 µM (inactive),> 30 µM (inactive),> 30 µM (inactive),> 30 µM (inactive),> 30 µM (inactive),> 30 µM (inactive),> 30 µM (inactive),> 30 µM (inactive),> 30 µM (inactive),> 30 µM (inactive),> 30 µM (inactive),> 30 µM (inactive)
CN(C)C(=O)c1cc2cnc(Nc3ccc(N4CCNCC4)cn3)nc2n1C1CCCC1 [RIBOCICLIB],> 30 µM (inactive),> 30 µM (inactive),0.247 µM (active),> 30 µM (inactive),> 30 µM (inactive),> 30 µM (inactive),> 30 µM (inactive),> 30 µM (inactive),> 30 µM (inactive),> 30 µM (inactive),> 30 µM (inactive),> 30 µM (inactive),> 30 µM (inactive),> 30 µM (inactive),9.31 µM (active)
COc1ccc(-c2ccc3c(N4CCOC[C@@H]4C)nc(N4CCOC[C@@H]4C)nc3n2)cc1CO [AZD-8055],> 30 µM (inactive),> 30 µM (inactive),> 30 µM (inactive),> 30 µM (inactive),> 30 µM (inactive),> 30 µM (inactive),> 30 µM (inactive),> 30 µM (inactive),> 30 µM (inactive),> 30 µM (inactive),> 30 µM (inactive),> 30 µM (inactive),> 30 µM (inactive),> 30 µM (inactive),> 30 µM (inactive)
CNC(=O)CN1CCC(Oc2cc3c(Nc4cccc(Cl)c4F)ncnc3cc2OC)CC1 [SAPITINIB],> 30 µM (inactive),> 30 µM (inactive),> 30 µM (inactive),> 30 µM (inactive),> 30 µM (inactive),> 30 µM (inactive),> 30 µM (inactive),> 30 µM (inactive),> 30 µM (inactive),> 30 µM (inactive),> 30 µM (inactive),> 30 µM (inactive),> 30 µM (inactive),> 30 µM (inactive),> 30 µM (inactive)
CCCS(=O)(=O)Nc1ccc(F)c(C(=O)c2c[nH]c3ncc(-c4ccc(Cl)cc4)cc23)c1F [VEMURAFENIB],> 30 µM (inactive),> 30 µM (inactive),> 30 µM (inactive),> 30 µM (inactive),> 30 µM (inactive),> 30 µM (inactive),> 30 µM (inactive),> 30 µM (inactive),1.8 µM (active),> 30 µM (inactive),> 30 µM (inactive),> 30 µM (inactive),> 30 µM (inactive),> 30 µM (inactive),> 30 µM (inactive)
O=C1NC(=O)/C(=C/c2ccc3nccc(-c4ccncc4)c3c2)S1 [GSK-1059615],> 30 µM (inactive),–,> 30 µM (inactive),> 30 µM (inactive),> 30 µM (inactive),> 30 µM (inactive),> 30 µM (inactive),> 30 µM (inactive),> 30 µM (inactive),> 30 µM (inactive),> 30 µM (inactive),> 30 µM (inactive),0.205 µM (active),> 30 µM (inactive),0.078 µM (active)
C[C@@H]1CN(Cc2ccc(F)cc2)[C@@H](C)CN1C(=O)c1cc2c(C(=O)C(=O)N(C)C)cn(C)c2cc1Cl [TALMAPIMOD],> 30 µM (inactive),> 30 µM (inactive),> 30 µM (inactive),> 30 µM (inactive),> 30 µM (inactive),–,> 30 µM (inactive),> 30 µM (inactive),> 30 µM (inactive),> 30 µM (inactive),0.019 µM,> 30 µM (inactive),> 30 µM (inactive),> 30 µM (inactive),> 30 µM (inactive)
